Data published in patent US11053204B2, “Pyrimidinyloxy benzene derivatives as herbicides” (FMC Corporation, priority 2015, dated 2021).

Legend:
Format in all cases: in vivo
[1] = system: ducksalad (Heteranthera limosa); experiment: Test B flooded paddy test, plant response rating; conditions: 250 g ai/ha; Flood; scale of 0 to 100 where 0 is no effect and 100 is complete control; 13 to 15 days
Method in brief: (§1)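 Pots were flooded to 3 cm above the soil surface at treatment, compound applied directly to the paddy water, and that depth held throughout. Plants were kept in a greenhouse for 13 to 15 days, then visually rated against untreated controls.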

[2] = system: barnyardgrass (Echinochloa crus-galli); experiment: Test B flooded paddy test, plant response rating; conditions: 250 g ai/ha; Flood; scale of 0 to 100 where 0 is no effect and 100 is complete control; 13 to 15 days
Method in brief: as §1

[3] = system: sedge, umbrella (small-flower umbrella sedge, Cyperus difformis); experiment: Test B flooded paddy test, plant response rating; conditions: 250 g ai/ha; Flood; scale of 0 to 100 where 0 is no effect and 100 is complete control; 13 to 15 days
Method in brief: as §1

[4] = system: rice (Oryza sativa); experiment: Test B flooded paddy test, plant response rating; conditions: 250 g ai/ha; Flood; scale of 0 to 100 where 0 is no effect and 100 is complete control; 13 to 15 days
Method in brief: as §1

[5] = system: kochia (Kochia scoparia); experiment: Test A postemergence, visual injury rating; conditions: 0 is no effect, 100 is complete control; for Kochia plant response rating: 0 to 100 scale, approximately 10 days
Method in brief: (§2)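 Visual 0–100 rating (100 = complete control) taken about 10 d post-treatment relative to untreated checks. Preemergence: directed soil spray on sown loam/sand pots. Postemergence: seedlings 2–10 cm, 1–2 leaf. Non-phytotoxic solvent formulation with surfactant.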

[6] = system: pigweed (Amaranthus retroflexus); experiment: Test A postemergence, visual injury rating; conditions: 0 is no effect, 100 is complete control; for Pigweed plant response rating: 0 to 100 scale, approximately 10 days
Method in brief: as §2

[7] = system: giant foxtail (Setaria faberii); experiment: Test A postemergence, visual injury rating; conditions: 0 is no effect, 100 is complete control; for Foxtail, Giant plant response rating: 0 to 100 scale, approximately 10 days
Method in brief: as §2

[8] = system: wheat (Triticum aestivum); experiment: Test A postemergence, visual injury rating; conditions: 0 is no effect, 100 is complete control; for Wheat plant response rating: 0 to 100 scale, approximately 10 days
Method in brief: as §2

[9] = system: corn (Zea mays); experiment: Test A postemergence, visual injury rating; conditions: 0 is no effect, 100 is complete control; for Corn plant response rating: 0 to 100 scale, approximately 10 days
Method in brief: as §2

[10] = system: barnyardgrass (Echinochloa crus-galli); experiment: Test A postemergence, visual injury rating; conditions: 0 is no effect, 100 is complete control; for Barnyardgrass plant response rating: 0 to 100 scale, approximately 10 days
Method in brief: as §2

[11] = system: blackgrass (Alopecurus myosuroides); experiment: Test A postemergence, visual injury rating; conditions: 0 is no effect, 100 is complete control; for Blackgrass plant response rating: 0 to 100 scale, approximately 10 days
Method in brief: as §2

[12] = system: galium (catchweed bedstraw, Galium aparine); experiment: Test A postemergence, visual injury rating; conditions: 0 is no effect, 100 is complete control; for Galium plant response rating: 0 to 100 scale, approximately 10 days
Method in brief: as §2

[13] = system: Italian ryegrass (Lolium multiflorum); experiment: Test A postemergence, visual injury rating; conditions: 0 is no effect, 100 is complete control; for Ryegrass, Italian plant response rating: 0 to 100 scale, approximately 10 days
Method in brief: as §2

[14] = system: ragweed (common ragweed, Ambrosia elatior); experiment: Test A postemergence, visual injury rating; conditions: 0 is no effect, 100 is complete control; for Ragweed plant response rating: 0 to 100 scale, approximately 10 days
Method in brief: as §2

[15] = system: kochia (Kochia scoparia); experiment: Test A preemergence, visual injury rating; conditions: for Kochia plant response rating: 0 to 100 scale (0 no effect, 100 complete control)
Method in brief: as §2

[16] = system: pigweed (Amaranthus retroflexus); experiment: Test A preemergence, visual injury rating; conditions: for Pigweed plant response rating: 0 to 100 scale (0 no effect, 100 complete control)
Method in brief: as §2

[17] = system: giant foxtail (Setaria faberii); experiment: Test A preemergence, visual injury rating; conditions: for Foxtail, Giant plant response rating: 0 to 100 scale (0 no effect, 100 complete control)
Method in brief: as §2

[18] = system: barnyardgrass (Echinochloa crus-galli); experiment: Test A preemergence, visual injury rating; conditions: for Barnyardgrass plant response rating: 0 to 100 scale (0 no effect, 100 complete control)
Method in brief: as §2

[19] = system: Italian ryegrass (Lolium multiflorum); experiment: Test A preemergence, visual injury rating; conditions: for Ryegrass, Italian plant response rating: 0 to 100 scale (0 no effect, 100 complete control)
Method in brief: as §2

[20] = system: ragweed (common ragweed, Ambrosia elatior); experiment: Test A preemergence, visual injury rating; conditions: for Ragweed plant response rating: 0 to 100 scale (0 no effect, 100 complete control)
Method in brief: as §2

[21] = 31 g ai/ha, 0 to 100 scale, 0 no effect, 100 complete control

Structure (SMILES): O=C(SCC(F)(F)F)c1c(Br)cccc1Oc1ncc(Cl)cn1 [Compound 85]
- Plant response rating, Ducksalad [1]: 0
- Plant response rating, Barnyardgrass [2]: 0
- Plant response rating, Sedge, Umbrella [3]: 0
- Plant response rating, Rice [4]: 0
- Kochia plant response rating ([5]; 125 g ai/ha): 30
- Kochia plant response rating (0 to 100 scale) ([5]; 500 g ai/ha): 80
- Pigweed plant response rating ([6]; 125 g ai/ha): 30
- Pigweed plant response rating (0 to 100 scale) ([6]; 500 g ai/ha): 70
- Foxtail, Giant plant response rating ([7]; 125 g ai/ha): 0
- Foxtail, Giant plant response rating (0 to 100 scale) ([7]; 500 g ai/ha): 60
- Wheat plant response rating ([8]; 125 g ai/ha): 0
- Wheat plant response rating (0 to 100 scale) ([8]; 500 g ai/ha): 20
- Corn plant response rating ([9]; 125 g ai/ha): 10
- Corn plant response rating (0 to 100 scale) ([9]; 500 g ai/ha): 40
- Barnyardgrass plant response rating ([10]; 125 g ai/ha): 0
- Barnyardgrass plant response rating (0 to 100 scale) ([10]; 500 g ai/ha): 20
- Blackgrass plant response rating ([11]; 125 g ai/ha): 0
- Blackgrass plant response rating (0 to 100 scale) ([11]; 500 g ai/ha): 0
- Galium plant response rating ([12]; 125 g ai/ha): 30
- Galium plant response rating (0 to 100 scale) ([12]; 500 g ai/ha): 90
- Ryegrass, Italian plant response rating ([13]; 125 g ai/ha): 0
- Ryegrass, Italian plant response rating (0 to 100 scale) ([13]; 500 g ai/ha): 0
- Ragweed plant response rating ([14]; 125 g ai/ha): 0
- Ragweed plant response rating (0 to 100 scale) ([14]; 500 g ai/ha): 0
- Kochia plant response rating ([15]; 125 g ai/ha): 0
- Kochia plant response rating ([15]; 500 g ai/ha): 0
- Pigweed plant response rating ([16]; 125 g ai/ha): 0
- Pigweed plant response rating ([16]; 500 g ai/ha): 60
- Foxtail, Giant plant response rating ([17]; 125 g ai/ha): 0
- Foxtail, Giant plant response rating ([17]; 500 g ai/ha): 70
- Barnyardgrass plant response rating ([18]; 125 g ai/ha): 0
- Barnyardgrass plant response rating ([18]; 500 g ai/ha): 10
- Ryegrass, Italian plant response rating ([19]; 125 g ai/ha): 0
- Ryegrass, Italian plant response rating ([19]; 500 g ai/ha): 0
- Ragweed plant response rating ([20]; 125 g ai/ha): 0
- Ragweed plant response rating ([20]; 500 g ai/ha): 0

Structure (SMILES): CCCCc1c(C#N)cccc1Oc1ncc(Cl)cn1 [Compound 86]
- Plant response rating, Ducksalad [1]: 100
- Plant response rating, Barnyardgrass [2]: 40
- Plant response rating, Sedge, Umbrella [3]: 100
- Plant response rating, Rice [4]: 20
- Kochia plant response rating ([5]; 31 g ai/ha): 90
- Kochia plant response rating ([5]; 125 g ai/ha): 100
- Pigweed plant response rating ([6]; 31 g ai/ha): 30
- Pigweed plant response rating ([6]; 125 g ai/ha): 40
- Foxtail, Giant plant response rating ([7]; 31 g ai/ha): 10
- Foxtail, Giant plant response rating ([7]; 125 g ai/ha): 30
- Wheat plant response rating ([8]; 31 g ai/ha): 30
- Wheat plant response rating ([8]; 125 g ai/ha): 40
- Corn plant response rating ([9]; 31 g ai/ha): 30
- Corn plant response rating ([9]; 125 g ai/ha): 30
- Barnyardgrass plant response rating ([10]; 31 g ai/ha): 20
- Barnyardgrass plant response rating ([10]; 125 g ai/ha): 40
- Blackgrass plant response rating ([11]; 31 g ai/ha): 0
- Blackgrass plant response rating ([11]; 125 g ai/ha): 20
- Galium plant response rating ([12]; 31 g ai/ha): 30
- Galium plant response rating ([12]; 125 g ai/ha): 70
- Ryegrass, Italian plant response rating ([13]; 31 g ai/ha): 0
- Ryegrass, Italian plant response rating ([13]; 125 g ai/ha): 20
- Ragweed plant response rating ([14]; 31 g ai/ha): 0
- Ragweed plant response rating ([14]; 125 g ai/ha): 0
- Plant response rating, Kochia [15, 21]: 10
- Kochia plant response rating ([15]; 125 g ai/ha): 100
- Plant response rating, Pigweed [16, 21]: 20
- Pigweed plant response rating ([16]; 125 g ai/ha): 100
- Plant response rating, Foxtail, Giant [17, 21]: 0
- Foxtail, Giant plant response rating ([17]; 125 g ai/ha): 50
- Plant response rating, Barnyardgrass [18, 21]: 0
- Barnyardgrass plant response rating ([18]; 125 g ai/ha): 90
- Plant response rating, Ryegrass, Italian [19, 21]: 0
- Ryegrass, Italian plant response rating ([19]; 125 g ai/ha): 20
- Plant response rating, Ragweed [20, 21]: 0
- Ragweed plant response rating ([20]; 125 g ai/ha): 0
